Test results as given in ChEMBL document CHEMBL1201862, “PubChem BioAssay data set” (2004).
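Grown in 96-well plates, cells were treated for 48 hours with each compound at five concentrations. Insufficient inhibition: endpoint recorded as highest concentration tested. GI50 is the concentration that inhibits growth by half.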 The source made the active and inactive calls. Rule as the data show it: active = GI50 up to about 1.1 µM and inactive = higher.

Key:
Assay in all cases: growth of human tumour cells (NCI), 48 h
786-0 = tested on: 786-0
A498 = tested on: A498
A549 = tested on: A549
ACHN = tested on: ACHN
BT-549 = tested on: BT-549
CAKI-1 = tested on: CAKI-1
CCRF-CEM = tested on: CCRF-CEM
COLO 205 = tested on: COLO 205
DU-145 = tested on: DU-145
EKVX = tested on: EKVX
HCC 2998 = tested on: HCC 2998
HCT-116 = tested on: HCT-116
HCT-15 = tested on: HCT-15
HL-60 = tested on: HL-60
HOP-62 = tested on: HOP-62
HOP-92 = tested on: HOP-92
HT-29 = tested on: HT-29
Hs-578T = tested on: Hs-578T
IGROV-1 = tested on: IGROV-1
K562 = tested on: K562
KM12 = tested on: KM12
LOX IMVI = tested on: LOX IMVI
M14 = tested on: M14
MCF7 = tested on: MCF7
MDA-MB-231 = tested on: MDA-MB-231
MDA-MB-435 = tested on: MDA-MB-435
MOLT-4 = tested on: MOLT-4
Malme-3M = tested on: Malme-3M
NCI-H226 = tested on: NCI-H226
NCI-H23 = tested on: NCI-H23
NCI-H460 = tested on: NCI-H460
NCI/ADR-RES = tested on: NCI/ADR-RES
OVCAR-3 = tested on: OVCAR-3
OVCAR-4 = tested on: OVCAR-4
OVCAR-5 = tested on: OVCAR-5
OVCAR-8 = tested on: OVCAR-8
PC-3 = tested on: PC-3
RPMI-8226 = tested on: RPMI-8226
RXF 393 = tested on: RXF 393
SF-268 = tested on: SF-268
SF-295 = tested on: SF-295
SF-539 = tested on: SF-539
SK-MEL-28 = tested on: SK-MEL-28
SK-MEL-2 = tested on: SK-MEL-2
SK-MEL-5 = tested on: SK-MEL-5
SK-OV-3 = tested on: SK-OV-3
SNB-19 = tested on: SNB-19
SNB-75 = tested on: SNB-75
SR = tested on: SR
SW-620 = tested on: SW-620
T47D = tested on: T47D
TK-10 = tested on: TK-10
U-251 = tested on: U-251
UACC-257 = tested on: UACC-257
UACC-62 = tested on: UACC-62
UO-31 = tested on: UO-31
MDA-N = tested on: MDA-N
NCI-H522 = tested on: NCI-H522
SN12C = tested on: SN12C

Question: With `CCOC(=O)C1(Cc2c[nH]c3ccccc23)C(O)CCCN1C(C)=O` (stereo not given) as the molecule, how does the GI50 (786-0) read?
Answer: > 100 µM (inactive)

Question: And the GI50 (A498)?
Answer: > 100 µM (inactive)

Question: What about the GI50 (A549) of the same molecule?
Answer: > 100 µM (inactive)

Question: And the GI50 (ACHN)?
Answer: > 100 µM (inactive)

Question: And the GI50 (BT-549)?
Answer: > 100 µM (inactive)

Question: What about the GI50 (CAKI-1) of the same molecule?
Answer: > 100 µM (inactive)

Question: And the GI50 (CCRF-CEM)?
Answer: > 100 µM (inactive)

Question: And the GI50 (COLO 205)?
Answer: > 100 µM (inactive)

Question: What about the GI50 (DU-145) of the same molecule?
Answer: > 100 µM (inactive)

Question: And the GI50 (EKVX)?
Answer: > 100 µM (inactive)

Question: And the GI50 (HCC 2998)?
Answer: > 100 µM (inactive)

Question: And the GI50 (HCT-116)?
Answer: > 100 µM (inactive)

Question: What about the GI50 (HCT-15) of the same molecule?
Answer: > 100 µM

Question: And the GI50 (HL-60)?
Answer: > 100 µM (inactive)

Question: And the GI50 (HOP-62)?
Answer: > 100 µM (inactive)

Question: And the GI50 (HOP-92)?
Answer: > 100 µM (inactive)

Question: And the GI50 (HT-29)?
Answer: > 100 µM (inactive)

Question: And the GI50 (Hs-578T)?
Answer: > 100 µM (inactive)

Question: And the GI50 (IGROV-1)?
Answer: > 100 µM (inactive)

Question: And the GI50 (K562)?
Answer: > 100 µM (inactive)

Question: What about the GI50 (KM12) of the same molecule?
Answer: > 100 µM (inactive)

Question: What about the GI50 (LOX IMVI) of the same molecule?
Answer: > 100 µM (inactive)

Question: What about the GI50 (M14) of the same molecule?
Answer: > 100 µM (inactive)

Question: What about the GI50 (MCF7) of the same molecule?
Answer: > 100 µM (inactive)

Question: And the GI50 (MDA-MB-231)?
Answer: > 100 µM (inactive)

Question: And the GI50 (MDA-MB-435)?
Answer: > 100 µM (inactive)

Question: And the GI50 (MOLT-4)?
Answer: > 100 µM (inactive)

Question: What about the GI50 (Malme-3M) of the same molecule?
Answer: > 100 µM (inactive)

Question: What about the GI50 (NCI-H226) of the same molecule?
Answer: > 100 µM (inactive)

Question: What about the GI50 (NCI-H23) of the same molecule?
Answer: > 100 µM (inactive)

Question: And the GI50 (NCI-H460)?
Answer: > 100 µM (inactive)

Question: And the GI50 (NCI/ADR-RES)?
Answer: > 100 µM (inactive)

Question: And the GI50 (OVCAR-3)?
Answer: > 100 µM (inactive)

Question: And the GI50 (OVCAR-4)?
Answer: > 100 µM (inactive)

Question: What about the GI50 (OVCAR-5) of the same molecule?
Answer: > 100 µM (inactive)

Question: And the GI50 (OVCAR-8)?
Answer: > 100 µM (inactive)

Question: And the GI50 (PC-3)?
Answer: > 100 µM (inactive)

Question: What about the GI50 (RPMI-8226) of the same molecule?
Answer: > 100 µM (inactive)

Question: What about the GI50 (RXF 393) of the same molecule?
Answer: > 100 µM (inactive)

Question: And the GI50 (SF-268)?
Answer: > 100 µM (inactive)

Question: What about the GI50 (SF-295) of the same molecule?
Answer: > 100 µM (inactive)

Question: And the GI50 (SF-539)?
Answer: > 100 µM (inactive)

Question: And the GI50 (SK-MEL-28)?
Answer: > 100 µM (inactive)

Question: And the GI50 (SK-MEL-2)?
Answer: > 100 µM (inactive)

Question: And the GI50 (SK-MEL-5)?
Answer: > 100 µM (inactive)

Question: What about the GI50 (SK-OV-3) of the same molecule?
Answer: > 100 µM (inactive)

Question: And the GI50 (SNB-19)?
Answer: > 100 µM (inactive)

Question: What about the GI50 (SNB-75) of the same molecule?
Answer: > 100 µM (inactive)

Question: And the GI50 (SR)?
Answer: 81.5 µM (inactive)

Question: What about the GI50 (SW-620) of the same molecule?
Answer: > 100 µM (inactive)

Question: And the GI50 (T47D)?
Answer: > 100 µM (inactive)

Question: What about the GI50 (TK-10) of the same molecule?
Answer: > 100 µM (inactive)

Question: What about the GI50 (U-251) of the same molecule?
Answer: > 100 µM (inactive)

Question: What about the GI50 (UACC-257) of the same molecule?
Answer: > 100 µM (inactive)

Question: And the GI50 (UACC-62)?
Answer: > 100 µM (inactive)

Question: And the GI50 (UO-31)?
Answer: > 100 µM (inactive)

Question: Which GI50 (786-0) does the source give for `C/C(=N\NC1=NCCN1)c1cn(C2=NCCN2)nc1C` here?
Answer: > 100 µM (inactive)

Question: What about the GI50 (A498) of the same molecule?
Answer: > 100 µM (inactive)

Question: And the GI50 (A549)?
Answer: > 100 µM (inactive)

Question: What about the GI50 (ACHN) of the same molecule?
Answer: > 100 µM (inactive)

Question: And the GI50 (BT-549)?
Answer: > 100 µM (inactive)

Question: And the GI50 (CAKI-1)?
Answer: > 100 µM (inactive)

Question: And the GI50 (COLO 205)?
Answer: > 100 µM (inactive)

Question: What about the GI50 (DU-145) of the same molecule?
Answer: > 100 µM (inactive)

Question: What about the GI50 (EKVX) of the same molecule?
Answer: > 100 µM (inactive)

Question: And the GI50 (HCC 2998)?
Answer: > 100 µM (inactive)

Question: What about the GI50 (HCT-116) of the same molecule?
Answer: > 100 µM (inactive)

Question: What about the GI50 (HCT-15) of the same molecule?
Answer: > 100 µM

Question: What about the GI50 (HOP-62) of the same molecule?
Answer: > 100 µM (inactive)

Question: And the GI50 (HOP-92)?
Answer: 97.1 µM (inactive)

Question: What about the GI50 (HT-29) of the same molecule?
Answer: > 100 µM (inactive)

Question: And the GI50 (Hs-578T)?
Answer: > 100 µM (inactive)

Question: What about the GI50 (IGROV-1) of the same molecule?
Answer: > 100 µM (inactive)

Question: And the GI50 (K562)?
Answer: 59.6 µM (inactive)

Question: And the GI50 (KM12)?
Answer: > 100 µM (inactive)

Question: And the GI50 (M14)?
Answer: > 100 µM (inactive)

Question: And the GI50 (MCF7)?
Answer: > 100 µM (inactive)

Question: What about the GI50 (MDA-MB-231) of the same molecule?
Answer: > 100 µM (inactive)

Question: And the GI50 (MDA-MB-435)?
Answer: > 100 µM (inactive)

Question: And the GI50 (MDA-N)?
Answer: > 100 µM (inactive)

Question: And the GI50 (Malme-3M)?
Answer: > 100 µM (inactive)

Question: What about the GI50 (NCI-H226) of the same molecule?
Answer: > 100 µM (inactive)

Question: And the GI50 (NCI-H23)?
Answer: > 100 µM (inactive)

Question: What about the GI50 (NCI-H460) of the same molecule?
Answer: > 100 µM (inactive)

Question: What about the GI50 (NCI-H522) of the same molecule?
Answer: > 100 µM (inactive)

Question: What about the GI50 (NCI/ADR-RES) of the same molecule?
Answer: > 100 µM (inactive)

Question: What about the GI50 (OVCAR-3) of the same molecule?
Answer: > 100 µM (inactive)

Question: And the GI50 (OVCAR-4)?
Answer: > 100 µM (inactive)

Question: What about the GI50 (OVCAR-5) of the same molecule?
Answer: > 100 µM (inactive)

Question: What about the GI50 (OVCAR-8) of the same molecule?
Answer: > 100 µM (inactive)

Question: And the GI50 (PC-3)?
Answer: > 100 µM (inactive)

Question: And the GI50 (RPMI-8226)?
Answer: > 100 µM (inactive)

Question: What about the GI50 (RXF 393) of the same molecule?
Answer: 72.1 µM (inactive)

Question: And the GI50 (SF-268)?
Answer: > 100 µM (inactive)

Question: And the GI50 (SF-295)?
Answer: > 100 µM (inactive)

Question: What about the GI50 (SF-539) of the same molecule?
Answer: > 100 µM (inactive)

Question: And the GI50 (SK-MEL-28)?
Answer: > 100 µM (inactive)

Question: And the GI50 (SK-MEL-2)?
Answer: > 100 µM (inactive)

Question: And the GI50 (SK-MEL-5)?
Answer: > 100 µM (inactive)

Question: And the GI50 (SK-OV-3)?
Answer: > 100 µM (inactive)

Question: What about the GI50 (SN12C) of the same molecule?
Answer: > 100 µM (inactive)

Question: What about the GI50 (SNB-19) of the same molecule?
Answer: > 100 µM (inactive)

Question: What about the GI50 (SNB-75) of the same molecule?
Answer: 77.6 µM (inactive)

Question: What about the GI50 (SW-620) of the same molecule?
Answer: > 100 µM (inactive)

Question: And the GI50 (T47D)?
Answer: > 100 µM (inactive)

Question: What about the GI50 (TK-10) of the same molecule?
Answer: > 100 µM (inactive)

Question: And the GI50 (U-251)?
Answer: > 100 µM (inactive)

Question: What about the GI50 (UACC-257) of the same molecule?
Answer: > 100 µM (inactive)

Question: And the GI50 (UACC-62)?
Answer: > 100 µM (inactive)

Question: What about the GI50 (UO-31) of the same molecule?
Answer: > 100 µM (inactive)
